Data set [1] can be described thus: Stability in 50 mM Tris buffered saline pH 7.6 (control without AP or plasma). Format: physicochemical. Particulars: 50 mM Tris buffered saline pH 7.6, 37° C. The method, then: (§1) A control sample of each drug at a final concentration of 50 μg/mL in 50 mM Tris buffered saline (pH 7.6) without AP was also incubated at 37° C. Aliquots of each solution were taken periodically; disappearance of the tested drug was determined by HPLC.
(§2) The stability of compounds 19, 20a and VNP40101M was evaluated in 100% human plasma (pooled mixed gender, BioChemed) at a final concentration of 50 μg/mL. Each drug (19 or 20a) was incubated in human plasma at 37° C. for a maximum of two hours. Aliquots of the incubation mixture were taken at various time points and extracted with acetonitrile. The extract was separated by centrifugation and analyzed directly by HPLC. In a similar manner, VNP40101M was incubated in human plasma at 37° C. for a maximum of one hour. At various time points, aliquots of the incubation mixture were removed and extracted with 0.5% H3PO4 in acetonitrile. The extract was separated by centrifugation and analyzed directly by HPLC. For comparison, the stability of each drug incubated in 50 mM Tris buffered saline (pH 7.6) instead of 100% human plasma was also determined.

For data set [2] the following is noted: room temperature, Krishna et al. 2001; cited from earlier work.
The nature of data set [3]: Aqueous stability in potassium phosphate buffers (50 mM), pH 3, 5, 7 and 9, HPLC. It counts as physicochemical. Particulars: potassium phosphate buffer 50 mM. The method, then: The stabilities of PAP-101M (19), OAP-101M (20a), and VNP40101M were investigated in potassium phosphate buffers (50 mM) at pH 3, 5, 7 and 9 and at room temperature (22-25° C.). One sample was prepared at each pH for each drug; the initial drug concentration in each sample was 50 μg/mL. Each sample was analyzed by HPLC repetitively, at various time points, to determine the
concentration of the respective drug. The first-order kinetic half-lives of each drug were calculated.

The nature of data set [4]: Stability in 100% human plasma. It counts as in vitro ADME. Conditions: both sexes, 37° C. On the procedure: as §2
The next data set deals with B16-F10 murine melanoma. Kind of data set: In vivo anti-tumor activity, B16-F10 murine melanoma implanted subcutaneously in C57BL/6 mice. Particulars: for Tumor growth inhibition on Day 24: ip weekly for four weeks from Day 2, 80 mg/kg VNP40101M, equal molar doses of prodrugs. The method, then: (§3) The anti-tumor effects of VNP40101 M and prodrugs, including PAP-101M (19), OAP-101M (20a), PAP-Na-101M (21), and OAP-Na-101M (22a), were evaluated in both the B16-F10 murine melanoma and HTB177 human lung carcinoma models. B16-F10 melanoma cells were implanted subcutaneously (5×10^5 cells) into C57BL/6 mice, which were randomized into groups of ten immediately after tumor cell implantation (Day 0). On Day 2, mice were injected intraperitoneally with either a bolus injection of 0.1 mL PBS or drug. The treatment was carried out weekly for four consecutive weeks. Tumor measurement in three dimensions was determined once a week with the formula L×H×W/2, where L, H, and W represent length, height, and width, respectively. […] On Day 24, tumor growth was inhibited by 81% in mice treated with 80 mg/kg of VNP40101M, and by 75 to 91% in mice treated with equal molar doses of the prodrugs. […] The toxicity of these drugs in mice was mild as determined by body weight loss and animal appearance, as illustrated in FIG. 13.

In data set [5] the test system is leukemia cells implanted intracranially. Conditions: Finch et al. 2001; cited from earlier work.
The subject of data set [6] is HTB177 human lung carcinoma. In words: In vivo anti-tumor activity, HTB177 human lung carcinoma in nu/nu CD-1 mice. On the procedure:
as §3

Data set [7] in a line: Water-solubility at room temperature. Particulars: thermodynamic from solid; for solubility: determined visually by incremental addition, not at equilibrium. It counts as physicochemical. On the procedure:
The solubility of the newly synthesized SHPs (19, 20a, 21, and 22a) is much higher than that of VNP40101 M, as shown in Table 1.
For the free phosphoric acid 19 and 20a, an excess amount of the drug was placed in a glass vial containing 2.0 mL of water. The vials were shaken in a Glas Col rotary apparatus at room temperature for 24 hours. The suspension containing undissolved drug was centrifuged; the supernatant was carefully separated and analyzed by HPLC for drug concentration. […] Aqueous solutions of 19 and 20a were colorless. Similarly, the solubility of the sodium salts 21 and 22a was determined visually by adding incremental quantities of the drug to 2.0 mL of water in a glass vial. The vials were shaken at room temperature in a Glas Col rotary apparatus until the drug dissolved entirely. Additional fixed quantities of drug were added and the vials shaken until complete dissolution. This process was continued until no more drug dissolved. Compounds 21 and 22a are highly water-soluble. Because of limited drug supplies determination of the solubilities at equilibrium could not be obtained. Solubilities of >0.98 and >1.35 g/mL for 21 and 22a, respectively, were determined.

Another data set relates to alkaline phosphatase. Kind of data set: In vitro enzymatic bioconversion by alkaline phosphatase. It counts as in vitro ADME. Particulars: bovine, alkaline phosphatase from bovine intestinal mucosa; approx. 0.055 unit/mL AP in 50 mM Tris buffered saline pH 7.6, 37° C., drug approx. 50 μg/mL. The method, then:
Each drug, at a final concentration of approximately 50 μg/mL, was incubated at 37° C. in 50 mM Tris buffered saline (pH 7.6) containing approximately 0.055 unit/mL of the phosphatase enzyme.
as §1

The nature of data set [8]: Pharmacokinetic study in rats, single iv bolus, HPLC-UV. Conditions: iv bolus 50 mg/kg. It counts as in vivo, female Sprague-Dawley rats. On the procedure:
Preliminary investigations of the pharmacokinetic profiles of prodrugs 19 and 20a were conducted in female Sprague-Dawley rats (10 weeks old, 250 g, Charles River). Each prodrug was administered as a single bolus intravenous (iv) injection via the jugular vein at a dose of 50 mg per kg (mpk) of body weight. Blood samples were collected on the day of dosing at the following time points: pre-dose and approximately 2, 10, 30 min, 1, 2, and 24 hr, after dosing. At each time point, approximately 0.2 mL of blood was collected in a tube containing an anticoagulant (heparin), which was immediately acidified by adding 0.005 mL of a 2.0 M citric acid solution. Then, the tube was inverted 4 to 6 times and immediately placed on ice. The blood samples were centrifuged within 30 min after blood collection at 3,000 rpm for 10-20 min at 2-8° C., and the plasma fraction was transferred to a labeled Nunc cryovial. The plasma samples were immediately frozen on dry ice and stored at −20° C. until HPLC-UV analysis. Animals were euthanized with CO2 inhalation after experiments.
Bioanalytical methods were developed to quantify these prodrugs in rat plasma using HPLC-UV at either 220 nm or 230 nm. Each plasma sample (0.1 mL) was extracted with 0.2 mL of acetonitrile. The extract was separated by centrifugation and analyzed directly by HPLC-UV. HPLC calibration standards were prepared in control rat plasma and processed as above.
Comparison to VNP101M (10 mpk of radioactive VNP101M was used in previous experiments) is difficult because of the difference in doses used in two the studies.

Where [9] appears, read: pH 9, room temperature (22-25° C.), read-out: Half-life, pH 9 (converted).
Where [10] appears, read: female, Sprague-Dawley, rat, plasma.

In brackets after ≈: the same amount, converted by molar mass.

Regarding `CNC(=O)N(N(CCCl)S(C)(=O)=O)S(C)(=O)=O` [VNP40101M, 1,2-Bis(methylsulfonyl)-1-(2-chloroethyl)-2-(methylaminocarbonyl) hydrazine], the half-life at 50 μg/mL in [1] is 20.5 min; in data set [3] (pH 5, room temperature (22-25° C.), read-out: Half-life, pH 5 (converted)), 118 days; in [3] (pH 7, room temperature (22-25° C.), read-out: Half-life, pH 7 (converted)) it was 0.508 days; in [3] (setting [9]), 0.00479 days; in data set [4], 14.5 min. For the same molecule, in [2], the Water-solubility was 0.66 mg/mL. Besides, in the data set on B16-F10 murine melanoma, the “Tumor growth inhibition on Day 24” value is listed as 81%. Besides, in data set [5], the Log cell kill is reported as more than 6.54 log cell kill.
As to `CN(Cc1ccccc1OP(=O)([O-])[O-])C(=O)N(N(CCCl)S(C)(=O)=O)S(C)(=O)=O.[Na+].[Na+]` [OAP-Na-101M (22a), Phosphoric acid 2-{N-[1,2-bis(methylsulfonyl)-2-(2-chloroethyl)-hydrazinylcarbonyl]-N-methylaminomethyl}-phenyl ester disodium salt], the “Anti-tumor effect in HTB177 human lung carcinoma (FIGS. 14 and 15)” value in data set [6] is listed as “holdout promise”. Also, the “Tumor growth inhibition on Day 24” value in the data set with B16-F10 murine melanoma is reported as 89.5%. Moreover, in data set [7], the solubility at 24 h was more than 1350 mg/mL and the solubility was more than 1350 mg/mL.
Turning to `CN(Cc1ccc(OP(=O)([O-])[O-])cc1)C(=O)N(N(CCCl)S(C)(=O)=O)S(C)(=O)=O.[Na+].[Na+]` [PAP-Na-101M (21), Phosphoric acid 4-{N-[1,2-bis(methylsulfonyl)-2-(2-chloroethyl)-hydrazinylcarbonyl]-N-methylaminomethyl}-phenyl ester disodium salt], in [7], the solubility at 24 h is more than 980 mg/mL and the solubility was more than 980 mg/mL.
In the case of `CN(Cc1ccc(OP(=O)(O)O)cc1)C(=O)N(N(CCCl)S(C)(=O)=O)S(C)(=O)=O` [PAP-101M (19), Phosphoric acid mono-{4-{N-[1,2-bis(methylsulfonyl)-2-(2-chloroethyl)-hydrazinylcarbonyl]-N-methylaminomethyl}-phenyl} ester], the half-life at 50 μg/mL in [4] worked out at 34.3 min; in the data set on alkaline phosphatase it was 21.1 min. Also, the solubility at 24 h in [7] came out at 293 mg/mL (≈ 593 mM). The “Pharmacokinetic determination in rat plasma (in words)” value in [8] is recorded as “fast conversion or clearance”.
Regarding `CN(Cc1ccccc1OP(=O)(O)O)C(=O)N(N(CCCl)S(C)(=O)=O)S(C)(=O)=O` [OAP-101M (20a), Phosphoric acid mono-{2-{N-[1,2-bis(methylsulfonyl)-2-(2-chloroethyl)-hydrazinylcarbonyl]-N-methylaminomethyl}-phenyl} ester], the “Anti-tumor effect in HTB177 human lung carcinoma (FIGS. 14 and 15)” value in data set [6] is “holdout promise”. Moreover, the half-life at 50 μg/mL in data set [3] (setting [9]) is 171 days. The molecule further displayed a half-life at 50 μg/mL in data set [4] of 53.3 min. Besides, the “Survival of tumor-bearing mice (FIG. 12)” value with B16-F10 murine melanoma (B16-F10 tumor-bearing mice, versus other drugs) is on record as “survived longer”. Besides, in the data set on B16-F10 murine melanoma, the “Tumor growth inhibition on Day 24” value was found to be 91%. In [7], this molecule displayed a solubility at 24 h of 46 mg/mL (≈ 93.1 mM). Besides, in the data set with alkaline phosphatase, the half-life at 50 μg/mL amounted to 29 min. The molecule further registered a half-life in data set [8] (female, Sprague-Dawley, rat, plasma, iv, 50 mg/kg) of approximately 14 min. Further, in data set [8] (setting [10]), the AUC was 21900 ng·h/mL, the concentration peaked (Cmax) at 239 µg/mL and the clearance amounted to 37.8 mL/min/kg. The Vd in data set [8] (female, Sprague-Dawley, rat, plasma, read-out: Vss) turned out to be 0.146 L/kg.

The values above are taken from patent US6855695B2, “Water-soluble SHPs as novel alkylating agents” (Vion Pharmaceuticals, Inc., priority 2003, dated 2005).
